# Measurements reported in patent US11352340B2, “Pyridine and pyridimine compounds as PI3K-gamma inhibitors” (Incyte Corporation, priority 2016, dated 2022).
# Structures can show the parent of a compound that is named as a salt. Where two headings read alike, the source gives them in different places.
# Tests used:
# [1] = molecular target: PI3Kγ (p110γ) Recombinant Human Protein (Homo sapiens (Human), UniProt P48736); experiment: PI3K-γ Scintillation Proximity Assay; type: biochemical; conditions: read-out: PI3K-gamma SPA IC50
# Outline: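 Radiometric SPA: reaction at room temperature for 120 min using 2 μM ATP with [γ-33P]ATP tracer, 20 μM PIP2 substrate and 13 nM human PI3Kγ (MOPS pH 6.7, MgCl2, DTT, CHAPS; 2% DMSO). EDTA quench with WGA beads, scintillation count, and IC50 fit of percent-of-control activity.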
# [2] = system: Phosphorylated Ribosomal Protein S6 (RPS6) in THP-1 cells; experiment: THP-1 RPS6 ELISA Assay; type: cell-based, Human; conditions: MCP-1 stimulated, phospho-RPS6 ELISA, read-out: THP p-RPS6 ELISA IC50
# Outline: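 Phospho-RPS6 in lysates measured by ELISA at 450 nm, corrected at 540 nm, after MCP-1 challenge (10 nM, 15 min) of THP-1 cells that were starved overnight and exposed to test compound for 2 h at 37° C, 2×10^5 cells/well. Curve fit of percent inhibition gives IC50.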
# [3] = molecular target: PI3Kδ (p110δ/p85α) Recombinant Human Protein (Homo sapiens (Human), UniProt O00329); experiment: PI3Kδ Scintillation Proximity Assay; type: biochemical; conditions: read-out: PI3K-delta SPA IC50
# Outline: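 IC50 was fitted to percent solvent-control activity from SPA scintillation counts after WGA bead capture of 33P-labelled lipid product. Reaction: 120 min, room temperature, 3.4 nM p110δ/p85α, 20 μM PIP2, 2 μM ATP with tracer, MOPS pH 6.7 buffer containing MgCl2, DTT, CHAPS, 2% DMSO.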
# PI3Kγ (p110γ) Recombinant Human Protein, sequence (P48736 whole entry): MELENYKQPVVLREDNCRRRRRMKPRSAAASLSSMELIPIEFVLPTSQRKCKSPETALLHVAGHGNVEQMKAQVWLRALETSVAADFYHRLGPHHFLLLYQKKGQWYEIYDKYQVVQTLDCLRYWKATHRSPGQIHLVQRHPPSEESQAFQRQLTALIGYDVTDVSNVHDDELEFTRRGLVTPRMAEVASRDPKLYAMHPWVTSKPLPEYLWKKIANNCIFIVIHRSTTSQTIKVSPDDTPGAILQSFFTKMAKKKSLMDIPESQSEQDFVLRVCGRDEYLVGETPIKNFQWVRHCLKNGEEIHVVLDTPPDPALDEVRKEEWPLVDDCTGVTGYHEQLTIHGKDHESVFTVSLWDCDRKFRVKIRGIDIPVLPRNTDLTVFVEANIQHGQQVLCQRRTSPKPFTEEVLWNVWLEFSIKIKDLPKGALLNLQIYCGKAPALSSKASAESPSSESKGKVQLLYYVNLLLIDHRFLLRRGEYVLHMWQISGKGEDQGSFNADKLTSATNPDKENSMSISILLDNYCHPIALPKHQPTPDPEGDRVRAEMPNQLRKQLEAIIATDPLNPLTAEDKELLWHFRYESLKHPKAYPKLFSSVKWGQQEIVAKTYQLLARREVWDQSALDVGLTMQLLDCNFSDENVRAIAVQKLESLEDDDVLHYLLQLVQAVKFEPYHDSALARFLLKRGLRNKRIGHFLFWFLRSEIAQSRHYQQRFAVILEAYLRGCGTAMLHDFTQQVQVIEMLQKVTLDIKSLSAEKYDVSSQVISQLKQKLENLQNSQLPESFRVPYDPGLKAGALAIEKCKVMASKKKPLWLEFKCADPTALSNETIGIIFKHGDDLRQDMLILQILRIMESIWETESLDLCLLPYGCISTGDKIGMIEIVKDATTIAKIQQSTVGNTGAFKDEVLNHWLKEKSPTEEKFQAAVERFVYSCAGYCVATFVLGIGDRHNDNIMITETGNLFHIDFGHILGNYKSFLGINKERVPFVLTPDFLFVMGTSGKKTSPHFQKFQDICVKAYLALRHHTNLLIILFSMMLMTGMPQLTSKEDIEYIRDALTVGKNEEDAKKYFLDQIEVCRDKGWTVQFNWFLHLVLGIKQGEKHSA
# PI3Kδ (p110δ/p85α) Recombinant Human Protein, sequence (O00329 whole entry): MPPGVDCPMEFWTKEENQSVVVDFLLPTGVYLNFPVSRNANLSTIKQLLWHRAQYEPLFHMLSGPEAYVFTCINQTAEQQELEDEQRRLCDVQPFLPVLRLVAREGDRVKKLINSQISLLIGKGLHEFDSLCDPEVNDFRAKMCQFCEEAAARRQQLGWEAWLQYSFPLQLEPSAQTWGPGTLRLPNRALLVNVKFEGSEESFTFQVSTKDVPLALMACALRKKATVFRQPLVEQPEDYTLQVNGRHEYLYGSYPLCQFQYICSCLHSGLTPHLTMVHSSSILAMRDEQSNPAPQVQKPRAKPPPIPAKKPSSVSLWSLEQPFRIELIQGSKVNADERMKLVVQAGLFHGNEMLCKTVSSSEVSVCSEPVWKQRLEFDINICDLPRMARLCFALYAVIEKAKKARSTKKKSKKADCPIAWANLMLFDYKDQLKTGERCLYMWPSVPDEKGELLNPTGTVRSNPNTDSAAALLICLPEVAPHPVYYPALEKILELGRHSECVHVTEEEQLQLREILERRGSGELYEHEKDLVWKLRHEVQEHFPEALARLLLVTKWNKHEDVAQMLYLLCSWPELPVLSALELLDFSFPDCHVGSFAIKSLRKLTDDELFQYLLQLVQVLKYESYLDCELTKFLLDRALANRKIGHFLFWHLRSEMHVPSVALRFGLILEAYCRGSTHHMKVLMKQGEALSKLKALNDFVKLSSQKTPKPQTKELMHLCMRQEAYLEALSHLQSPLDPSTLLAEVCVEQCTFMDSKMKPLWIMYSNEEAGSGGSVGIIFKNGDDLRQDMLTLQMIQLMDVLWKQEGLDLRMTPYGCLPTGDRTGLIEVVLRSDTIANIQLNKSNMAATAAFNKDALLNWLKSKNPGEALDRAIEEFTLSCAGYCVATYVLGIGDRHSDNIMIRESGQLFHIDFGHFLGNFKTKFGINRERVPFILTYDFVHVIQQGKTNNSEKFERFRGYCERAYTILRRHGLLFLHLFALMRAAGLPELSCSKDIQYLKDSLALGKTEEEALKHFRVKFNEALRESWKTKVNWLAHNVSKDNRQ
# PI3Kδ (p110δ/p85α) Recombinant Human Protein, sequence (P27986 whole entry partner): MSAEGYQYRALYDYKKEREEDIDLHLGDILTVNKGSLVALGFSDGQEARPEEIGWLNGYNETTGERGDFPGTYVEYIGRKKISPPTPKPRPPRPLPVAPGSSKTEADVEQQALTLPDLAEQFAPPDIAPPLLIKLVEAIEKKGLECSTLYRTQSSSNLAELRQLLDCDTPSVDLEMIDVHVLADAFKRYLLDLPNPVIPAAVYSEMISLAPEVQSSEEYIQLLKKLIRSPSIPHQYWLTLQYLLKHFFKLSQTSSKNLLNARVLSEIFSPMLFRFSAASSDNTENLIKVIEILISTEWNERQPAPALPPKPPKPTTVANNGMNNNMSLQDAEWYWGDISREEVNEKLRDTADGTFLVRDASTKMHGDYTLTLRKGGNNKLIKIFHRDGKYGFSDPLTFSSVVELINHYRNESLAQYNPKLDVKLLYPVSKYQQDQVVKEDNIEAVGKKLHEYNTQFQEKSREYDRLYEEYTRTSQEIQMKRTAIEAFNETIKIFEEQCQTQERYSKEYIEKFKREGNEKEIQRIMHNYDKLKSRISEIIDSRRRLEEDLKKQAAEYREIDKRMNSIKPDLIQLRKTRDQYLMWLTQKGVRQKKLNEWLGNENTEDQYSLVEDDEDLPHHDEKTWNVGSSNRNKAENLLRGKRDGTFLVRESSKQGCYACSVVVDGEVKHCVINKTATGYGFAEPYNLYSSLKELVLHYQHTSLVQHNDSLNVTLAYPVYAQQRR
Structure (SMILES),IC50 [1],IC50 ([2]; Homo sapiens),IC50 [3],IC50 [2]
"COc1cncc(-c2ccnc(-c3ncc(C)[nH]3)c2)c1 [Example 77, 5-Methoxy-2′-(5-methyl-1H-imidazol-2-yl)-3,4′-bipyridine]",≤ 50 nM,300 to 1000 nM,≤ 500 nM,–
"c1ccc(-c2cnc(-c3cc(-c4cncc(NC5CCOCC5)c4)ccn3)[nH]2)cc1 [Example 142, 2′-(5-Phenyl-1H-imidazol-2-yl)-N-(tetrahydro-2H-pyran-4-yl)-3,4′-bipyridin-5-amine trifluoroacetate salt]",≤ 50 nM,> 5000 nM,≤ 50 nM,–
"CNC(=O)c1nc(-c2cc(-c3cncc(S(C)(=O)=O)c3)ccn2)[nH]c1C [Example 250, N,5-Dimethyl-2-[5-(methylsulfonyl)-3,4′-bipyridin-2′-yl]-lH-imidazole-4-carboxamide trifluoroacetate salt]",≤ 50 nM,–,≤ 50 nM,300 to 1000 nM
"FC(F)(F)c1cnc(-c2cc(-c3cncc(N4CCOCC4)c3)ccn2)[nH]1 [Example 99, 4-(2′-(5-(Trifluoromethyl)-1H-imidazol-2-yl)-3,4′-bipyridin-5-yl)morpholine trifluoroacetate salt]",≤ 50 nM,> 5000 nM,≤ 500 nM,–
"CS(=O)(=O)c1cncc(-c2ccnc(-c3ncc(C4CCC4)[nH]3)c2)c1 [Example 113, 2′-(5-Cyclobutyl-1H-imidazol-2-yl)-5-(methylsulfonyl)-3,4′-bipyridine trifluoroacetate salt]",≤ 50 nM,≤ 300 nM,≤ 50 nM,–
"COc1cncc(-c2ccnc(-c3cnc(-c4ccccc4)[nH]3)c2)c1 [Example 74, 5-Methoxy-2′-(2-phenyl-1H-imidazol-5-yl)-3,4′-bipyridine]",≤ 50 nM,> 5000 nM,≤ 50 nM,–
"CCCCNc1nnc(-c2cc(-c3cncc(OC)c3)ccn2)[nH]1 [Example 66, N-Butyl-5-(5-methoxy-3,4′-bipyridin-2′-yl)-4H-1,2,4-triazol-3-amine Trifluoroacetate Salt]",≤ 500 nM,> 5000 nM,> 500 nM,–
"CC(C)c1cnc(-c2cc(-c3cncc(S(C)(=O)=O)c3)ccn2)[nH]1 [Example 111, 2′-(5-Isopropyl-1H-imidazol-2-yl)-5-(methylsulfonyl)-3,4′-bipyridine trifluoroacetate salt]",≤ 50 nM,300 to 1000 nM,≤ 50 nM,–
"Cc1cnc(-c2cc(-c3cncc(N4CCOCC4)c3)ccn2)[nH]1 [Example 97, 2′-(5-Methyl-1H-imidazol-2-yl)-5-morpholin-4-yl-3,4′-bipyridine]",≤ 50 nM,300 to 1000 nM,≤ 500 nM,–
"Cc1nc(-c2cc(-c3cncc(NCC4CCOC4)c3)ccn2)[nH]c1C (racemic) [Example 145B, 2′-(4,5-Dimethyl-1H-imidazol-2-yl)-N-(tetrahydrofuran-3-ylmethyl)-3,4′-bipyridin-5-amine]",≤ 50 nM,≤ 300 nM,≤ 50 nM,–
"Cc1cnc(-c2cc(-c3cncc(S(C)(=O)=O)c3)ccn2)[nH]1 [Example 107, 2′-(5-Methyl-1H-imidazol-2-yl)-5-(methylsulfonyl)-3,4′-bipyridine trifluoroacetate salt]",≤ 100 nM,≤ 300 nM,≤ 100 nM,–
"Cc1nc(-c2cc(-c3cncc(C(=O)N4CC(O)C4)c3)ccn2)[nH]c1C [Example 152, (2′-(4,5-Dimethyl-1H-imidazol-2-yl)-3,4′-bipyridin-5-yl)(3-hydroxyazetidin-1-yl)methanone trifluoroacetate salt]",≤ 50 nM,300 to 1000 nM,≤ 50 nM,–
"COc1cncc(-c2ccnc(-c3nnc(-c4ccccc4)[nH]3)c2)c1 [Example 71, 5-Methoxy-2′-(5-phenyl-4H-1,2,4-triazol-3-yl)-3,4′-bipyridine]",≤ 500 nM,> 5000 nM,≤ 500 nM,–
"Cc1[nH]c(-c2cc(-c3cncc(N4CCOCC4)c3)ccn2)nc1CO [Example 122, [5-Methyl-2-(5-morpholin-4-yl-3,4′-bipyridin-2′-yl)-1H-imidazol-4-yl]methanol]",≤ 500 nM,1000 to 5000 nM,≤ 500 nM,–
"Cc1nc(-c2cc(-c3cncc(C(=O)N4CCCC(O)C4)c3)ccn2)[nH]c1C (racemic) [Example 154, (2′-(4,5-Dimethyl-1H-imidazol-2-yl)-3,4′-bipyridin-5-yl)(3-hydroxypiperidin-1-yl)methanone]",≤ 50 nM,300 to 1000 nM,≤ 100 nM,–
"Cc1nc(-c2cc(-c3cncc(C(=O)N4CC[C@@H](F)C4)c3)ccn2)[nH]c1C [Example 155, (R)-(2′-(4,5-Dimethyl-1H-imidazol-2-yl)-3,4′-bipyridin-5-yl)(3-fluoropyrrolidin-1-yl)methanone trifluoroacetate salt]",≤ 50 nM,≤ 300 nM,≤ 50 nM,–
"COc1cncc(-c2ccnc(-c3nc(C)c(-c4ccccc4)[nH]3)c2)c1 [Example 82, 5-Methoxy-2′-(4-methyl-5-phenyl-1H-imidazol-2-yl)-3,4′-bipyridine trifluoroacetate salt]",≤ 50 nM,> 5000 nM,≤ 50 nM,–
"c1ccc(-c2cnc(-c3cc(-c4cncc(N5CCOCC5)c4)ccn3)[nH]2)cc1 [Example 18, 4-(2′-(5-Phenyl-1H-imidazol-2-yl)-3,4′-bipyridin-5-yl)morpholine trifluoroacetate salt]",≤ 50 nM,300 to 1000 nM,≤ 50 nM,–

# Second part, led by results:
IC50 [1],IC50 ([2]; Homo sapiens),IC50 [3],Structure (SMILES),IC50 [2]
≤ 50 nM,1000 to 5000 nM,≤ 50 nM,"Cc1[nH]c(-c2cc(-c3cncc(N4CCOCC4)c3)ccn2)nc1C(=O)N[C@H](C)c1ccccc1 [Example 274, 5-Methyl-2-(5-morpholin-4-yl-3,4′-bipyridin-2′-yl)-N-[(1R)-1-phenylethyl]-1H-imidazole-4-carboxamide trifluoroacetate salt]",–
≤ 50 nM,1000 to 5000 nM,≤ 50 nM,"Cc1nc(-c2cc(-c3cncc(C(=O)N4CCC5(CCOCC5)CC4)c3)ccn2)[nH]c1C [Example 156, (2′-(4,5-Dimethyl-1H-imidazol-2-yl)-3,4′-bipyridin-5-yl)(3-oxa-9-azaspiro[5.5]undecan-9-yl)methanone trifluoroacetate salt]",–
≤ 100 nM,1000 to 5000 nM,≤ 100 nM,"Cc1nc(-c2cc(-c3cncc(C(=O)NCC4CCC4)c3)ccn2)[nH]c1C [Example 206, N-(Cyclobutylmethyl)-2′-(4,5-dimethyl-1H-imidazol-2-yl)-3,4′-bipyridine-5-carboxamide trifluoroacetate salt]",–
≤ 50 nM,≤ 300 nM,≤ 50 nM,"Cc1[nH]c(-c2cc(-c3cncc(N4CCOCC4)c3)ccn2)nc1C(=O)NCc1ccccc1 [Example 272, N-Benzyl-5-methyl-2-(5-morpholin-4-yl-3,4′-bipyridin-2′-yl)-1H-imidazole-4-carboxamide trifluoroacetate salt]",–
≤ 100 nM,1000 to 5000 nM,≤ 100 nM,"Cc1nc(-c2cc(-c3cncc(C(=O)NCc4ccccc4)c3)ccn2)[nH]c1C [Example 192, N-Benzyl-2′-(4,5-dimethyl-1H-imidazol-2-yl)-3,4′-bipyridine-5-carboxamide trifluoroacetate salt]",–
≤ 100 nM,300 to 1000 nM,≤ 50 nM,"Cc1nc(-c2cc(-c3cncc(C(=O)N4CCC(c5cnccn5)C4)c3)ccn2)[nH]c1C (stereo not drawn) [Example 197, 2′-(4,5-Dimethyl-1H-imidazol-2-yl)-5-[(3-pyrazin-2-ylpyrrolidin-1-yl)carbonyl]-3,4′-bipyridine trifluoroacetate salt]",–
≤ 50 nM,≤ 300 nM,≤ 50 nM,"Cc1nc(-c2cc(-c3cncc(C(=O)N4CCC5(CC5)C4)c3)ccn2)[nH]c1C [Example 212, 5-(5-Azaspiro[2.4]hept-5-ylcarbonyl)-2′-(4,5-dimethyl-1H-imidazol-2-yl)-3,4′-bipyridine trifluoroacetate salt]",–
≤ 50 nM,≤ 300 nM,≤ 50 nM,"Cc1nc(-c2cc(-c3cncc(C(=O)N4CCC(=O)C4)c3)ccn2)[nH]c1C [Example 168, 1-(2′-(4,5-Dimethyl-1H-imidazol-2-yl)-3,4′-bipyridine-5-carbonyl)pyrrolidin-3-one trifluoroacetate salt]",–
≤ 50 nM,1000 to 5000 nM,≤ 100 nM,"Cc1nc(-c2cc(-c3cncc(C(=O)N4CCN(C5CCN(C)CC5)CC4)c3)ccn2)[nH]c1C [Example 158, (2′-(4,5-Dimethyl-1H-imidazol-2-yl)-3,4′-bipyridin-5-yl)(4-(1-methylpiperidin-4-yl)piperazin-1-yl)methanone]",–
≤ 100 nM,≤ 300 nM,≤ 50 nM,"Cc1[nH]c(-c2cc(-c3cncc(N4CCOCC4)c3)ccn2)nc1C(=O)N[C@H]1CCN(Cc2ccccc2)C1 [Example 279, N-[(3S)-1-Benzylpyrrolidin-3-yl]-5-methyl-2-(5-morpholin-4-yl-3,4′-bipyridin-2′-yl)-1H-imidazole-4-carboxamide trifluoroacetate salt]",–
